Laboratory results taken from article PMC4818977 (ChemMedChem, 2016).
Like-named read-outs stand apart in the source and are kept apart here.

Columns and labels:
[1] = test system: UPEC biofilm formation; assay: biofilm prevention assay; type: cell-based, uropathogenic E. coli (UPEC) strain UTI89; conditions: read-out: Biofilm IC50
[2] = target: FimH (Escherichia coli, UniProt Q1R2J4); type: cell-based, uropathogenic E. coli (UPEC) strain UTI89; conditions: for HAI: hemagglutination inhibition titer (EC>90, Figure 5 legend)
[3] = target: FimH lectin domain (Escherichia coli, UniProt P08191); set-up: species or system uropathogenic E. coli (UPEC); conditions: melting temperature of FimH lectin domain, relative binding strength
FimH lectin domain, sequence (P08191 22-179): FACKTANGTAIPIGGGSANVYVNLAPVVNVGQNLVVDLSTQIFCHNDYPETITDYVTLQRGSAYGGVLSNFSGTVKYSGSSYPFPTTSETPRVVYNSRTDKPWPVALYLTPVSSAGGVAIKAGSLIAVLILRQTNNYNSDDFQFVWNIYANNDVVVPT

[4] = in vivo mouse PK, urine mannoside concentration; conditions: mice, 50 mgkg^−1 oral gavage, 10% cyclodextrin, 1 h post-dosing
[5] = test system: UTI89 chronically infected mice; assay: murine model of chronic UTI; type: in vivo; conditions: 50 mgkg^−1 p.o., 10% cyclodextrin, 6 h post-dosing
[6] = i.v./p.o. crossover PK study in rat; type: in vivo

Compound: COC(=O)c1cccc(-c2ccc(O[C@H]3O[C@H](CO)[C@@H](O)[C@H](O)[C@@H]3O)cc2)c1 [Compound 2]
- IC50 ([1]; biofilm prevention): 940 nM
- HAI [2]: 1.0 µM
- DSF Tm [3]: 73.4 °C

Compound: Cc1cc(-c2ccc3cc[nH]c(=O)c3c2)ccc1O[C@H]1O[C@H](CO)[C@@H](O)[C@H](O)[C@@H]1O [Compound 22, 2-methyl-4-(1-oxo-1,2-dihydroisoquinolin-7-yl)phenyl α-D-mannopyranoside]
- IC50 ([1]; Escherichia coli): 130 nM
- HAI [2]: 0.031 µM
- increase in activity in HA assay relative to 16 and 17, respectively ([2]; ortho-methyl matched pairs): fourfold
- initial urine concentration [4]: elevated relative to 5
- DSF Tm [3]: 75.5 °C
- additional drop in CFUs per bladder relative to 5, 7 (and 17b) [5]: 10 fold
- Rat F ([6]; 10 mgkg^−1 oral (p.o.) dose, 10% cyclodextrin formulation): 7.0%
- Rat CL ([6]; calculated from a 10 mgkg^−1 oral (p.o.) dose, 10% cyclodextrin formulation): 408 mLmin^−1kg^−1
- half-life ([6]; rat, in vivo, po, 10 mgkg^−1): < 3 h
